Where two headings read alike, the source gives them in different places. Where a SMILES comes first, the peptide text is derived from it. Bridges are numbered along the chain shown (N, C = ends). [ ]: non-standard residue; d: D form. The star is where a group is joined. hPhe(3-Cl-4-CF3) = N[C@@H](CCc1ccc(C(F)(F)F)c(Cl)c1)C(=O)O; NPrPhe(4-CF3) = CCCN[C@@H](Cc1ccc(C(F)(F)F)cc1)C(=O)O; NEtPhe(4-Me) = CCN[C@@H](Cc1ccc(C)cc1)C(=O)O; NMeGly(cPent) = CN[C@H](C(=O)O)C1CCCC1; Pro(4,4-F2) = O=C(O)[C@@H]1CC(F)(F)CN1; Hyp = O=C(O)[C@@H]1C[C@@H](O)CN1; NMeD = CN[C@@H](CC(=O)O)C(=O)O; NMeL = CN[C@@H](CC(C)C)C(=O)O; Morpholide = C1CN(*)CCO1; NMeA = CN[C@@H](C)C(=O)O; Ac5c = NC1(C(=O)O)CCCC1; Aze = O=C(O)[C@@H]1CCN1; Ac4c = NC1(C(=O)O)CCC1; NEtG = CCNCC(=O)O; Sar = CNCC(=O)O
Experiments:
[1] = target: GDP-bound NRAS wild-type protein (Homo sapiens, UniProt P01111); experiment: Binding to NRAS by surface plasmon resonance (SPR), Single Cycle Kinetics; details: for NRAS/KRAS (ratio of KD value for NRAS to KD value for KRAS) / NRAS/KRAS (ratio of KD value with respect to NRAS to KD value with respect to KRAS): SPR, GDP-bound NRAS wild-type protein vs GDP-bound KRAS wild-type protein; for NRAS/KRAS (ratio of KD value with respect to GDP-bound NRAS wild-type protein to KD value with respect to KRAS): SPR KD ratio NRAS/KRAS, class symbols
[2] = target: GDP-bound KRAS wild-type protein (Homo sapiens, UniProt P01116); experiment: Binding to KRAS by surface plasmon resonance (SPR), Single Cycle Kinetics; details: GDP-bound KRAS wild-type protein, read-out: KRAS KD
[3] = target: GDP-bound HRAS wild-type protein (Homo sapiens, UniProt P01112); experiment: Binding to HRAS by surface plasmon resonance (SPR), Single Cycle Kinetics; details: for HRAS/KRAS (ratio of KD value for HRAS to KD value for KRAS) / HRAS/KRAS (ratio of KD value with respect to HRAS to KD value with respect to KRAS): SPR, GDP-bound HRAS wild-type protein vs GDP-bound KRAS wild-type protein; for HRAS/KRAS (ratio of KD value with respect to GDP-bound HRAS wild-type protein to KD value with respect to KRAS): SPR KD ratio HRAS/KRAS, class symbols
[4] = SPR Single Cycle Kinetics, 1:1 binding model

Chain of GDP-bound NRAS wild-type protein (P01111 whole entry): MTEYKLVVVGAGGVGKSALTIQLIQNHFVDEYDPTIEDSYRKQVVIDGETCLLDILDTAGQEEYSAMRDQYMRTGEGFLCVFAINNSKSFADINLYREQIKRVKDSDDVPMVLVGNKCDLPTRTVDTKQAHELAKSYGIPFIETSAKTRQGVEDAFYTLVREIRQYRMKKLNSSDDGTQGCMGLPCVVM
Chain of GDP-bound KRAS wild-type protein (P01116 whole entry): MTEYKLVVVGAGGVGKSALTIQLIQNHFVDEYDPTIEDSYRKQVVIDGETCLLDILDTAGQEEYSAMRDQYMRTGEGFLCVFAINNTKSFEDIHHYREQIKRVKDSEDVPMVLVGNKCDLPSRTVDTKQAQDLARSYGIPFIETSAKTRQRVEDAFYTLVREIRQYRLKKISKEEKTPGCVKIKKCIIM
Chain of GDP-bound HRAS wild-type protein (P01112 whole entry): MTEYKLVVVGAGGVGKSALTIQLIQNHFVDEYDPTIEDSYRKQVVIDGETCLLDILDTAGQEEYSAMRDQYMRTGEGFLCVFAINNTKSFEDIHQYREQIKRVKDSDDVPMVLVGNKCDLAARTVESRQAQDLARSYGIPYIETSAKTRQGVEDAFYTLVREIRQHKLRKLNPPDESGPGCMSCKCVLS

| Compound | NRAS/KRAS (ratio of KD value for NRAS to KD value for KRAS) [1] | Kd ([2]; SPR, Single Cycle Kinetics) | HRAS/KRAS (ratio of KD value for HRAS to KD value for KRAS) [3] | NRAS/KRAS (ratio of KD value with respect to GDP-bound NRAS wild-type protein to KD value with respect to KRAS) [1] | Kd [2, 4] | HRAS/KRAS (ratio of KD value with respect to GDP-bound HRAS wild-type protein to KD value with respect to KRAS) [3] | NRAS/KRAS (ratio of KD value with respect to NRAS to KD value with respect to KRAS) [1] | HRAS/KRAS (ratio of KD value with respect to HRAS to KD value with respect to KRAS) [3] |
| --- | --- | --- | --- | --- | --- | --- | --- | --- |
| CCC[C@H]1C(=O)N[C@@H]([C@@H](C)CC)C(=O)N(C)CC(=O)N(C)[C@H]2C/C=C\CCN(C2=O)[C@@H](Cc2ccc(C)cc2)C(=O)N(C)CC(=O)N[C@@H](CCc2ccc(C(F)(F)F)c(OC)c2)C(=O)N2C[C@H](OCC)C[C@H]2C(=O)NC2(CC(C)(C)C2)C(=O)N(C)[C@@H](C(CC)CC)C(=O)N(C)[C@H](C(=O)N(C)C)CC(=O)N1C [PP2068] | A (a compound having 10 or more and less than 20 is denoted as A) | 0.36 nM | B (a compound having 3 or more and less than 10 is denoted as B) |  |  |  |  |  |
| CCC[C@H]1C(=O)N[C@@H]([C@@H](C)CC)C(=O)N(C)CC(=O)N(C)[C@H]2C/C=C\CCN(C2=O)[C@@H](Cc2ccc(C(F)(F)F)cc2)C(=O)N(C)CC(=O)N[C@@H](CCc2ccc3sc(C)c(C)c3c2)C(=O)N2C[C@H](OCC)C[C@H]2C(=O)NC2(CC(C)(C)C2)C(=O)N(C)[C@@H](C2CCCC2)C(=O)N(C)[C@H](C(=O)N(C)C)CC(=O)N1C [PP2889] |  |  |  | A (a compound having 10 or more and less than 20 is denoted as A) | 0.29 nM | A (a compound having 10 or more and less than 20 is denoted as A) |  |  |
| CCO[C@@H]1C[C@H]2C(=O)NC3(CC(C)(C)C3)C(=O)N(C)[C@@H](C(CC)CC)C(=O)N(C)[C@H](C(=O)N(C)C)CC(=O)N(C)[C@@H](CC3CCC3)C(=O)N[C@@H]([C@@H](C)CC)C(=O)N(C)CC(=O)N(C)[C@H]3C/C=C\CCN(C3=O)[C@@H](Cc3ccc(C)cc3)C(=O)N(C)CC(=O)N[C@@H](CCc3ccc(C(F)(F)F)c(OC)c3)C(=O)N2C1 [PP2172] | A (a compound having 10 or more and less than 20 is denoted as A) | 0.51 nM | B (a compound having 3 or more and less than 10 is denoted as B) |  |  |  |  |  |
| CCCN1C(=O)[C@@H]2CCN2C(=O)[C@H](C)N(C)C(=O)[C@H]([C@@H](C)CC)NC(=O)[C@H](CC(C)C)N(C)C(=O)C[C@@H](C(=O)N(C)C)N(C)C(=O)[C@H](C2CCCC2)N(C)C(=O)C2(CCCC2)NC(=O)[C@@H]2C[C@@H](OCC)CN2C(=O)[C@H](CCc2ccc(C(F)(F)F)c(Cl)c2)NC(=O)CN(C)C(=O)[C@@H]1Cc1ccc(C(F)(F)F)cc1 [PP0438] ([NMeL]I[NMeA][Aze][NPrPhe(4-CF3)][Sar][hPhe(3-Cl-4-CF3)][Hyp](Et)[Ac5c][NMeGly(cPent)][NMeD]-NMe2; lactam N-11) |  |  |  |  | 0.03 nM |  | C (A compound having a KD ratio of 0.1 or more and less than 3 is denoted as C) | C (A compound having a KD ratio of 0.1 or more and less than 3 is denoted as C) |
| CC[C@H](C)[C@@H]1NC(=O)[C@H](CC(C)C)NC(=O)C[C@@H](C(=O)N2CCOCC2)N(C)C(=O)[C@H](C2CCCC2)N(C)C(=O)C2(CCCC2)NC(=O)[C@@H]2CCCN2C(=O)[C@H](CCc2cc(F)c(C(F)(F)F)c(F)c2)NC(=O)CN(C)C(=O)[C@H](Cc2ccc(C(F)(F)F)cc2)N2CCCC[C@@H](C2=O)N(C)C(=O)CN(C)C1=O [PP0590] |  |  |  |  | 0.27 nM |  | C (A compound having a KD ratio of 0.1 or more and less than 3 is denoted as C) | B (a compound having 3 or more and less than 10 is denoted as B) |
| CCC(CC)[C@H]1C(=O)N(C)[C@H](C(=O)N(C)C)CC(=O)N(C)[C@@H](COC)C(=O)N[C@@H]([C@@H](C)CC)C(=O)N(C)CC(=O)N(C)[C@H]2C/C=C\CCN(C2=O)[C@@H](Cc2ccc(C(F)(F)F)cc2)C(=O)N(C)CC(=O)N[C@@H](CCc2cc(F)c(C(F)(F)F)c(F)c2)C(=O)N2CCOC[C@H]2C(=O)NC2(CC(C)(C)C2)C(=O)N1C [PP2917] |  |  |  | AA (a compound having 20 or more is denoted as AA) | 1.4 nM | A (a compound having 10 or more and less than 20 is denoted as A) |  |  |
| CCCN1C(=O)CN(C)C(=O)CNC(=O)[C@H]([C@@H](C)CC)NC(=O)[C@H](CC(C)C)N(C)C(=O)C[C@@H](C(=O)N(C)C)N(C)C(=O)[C@H](C2CCCC2)N(C)C(=O)C2(CCC2)NC(=O)[C@@H]2CCCN2C(=O)[C@H](CCc2ccc(C(F)(F)F)c(Cl)c2)NC(=O)CN(C)C(=O)[C@@H]1Cc1ccc(C(F)(F)F)cc1 [PP0418] ([NMeL]IG[Sar][NPrPhe(4-CF3)][Sar][hPhe(3-Cl-4-CF3)]P[Ac4c][NMeGly(cPent)][NMeD]-NMe2; lactam N-11) |  |  |  |  | 0.074 nM |  | B (a compound having 3 or more and less than 10 is denoted as B) | C (A compound having a KD ratio of 0.1 or more and less than 3 is denoted as C) |
| CCCN1C(=O)CN(C)C(=O)CN(CC)C(=O)[C@H]([C@@H](C)CC)NC(=O)[C@H](CC(C)C)N(C)C(=O)C[C@@H](C(=O)N(C)C)N(C)C(=O)[C@H](C2CCCC2)N(C)C(=O)C2(CCCC2)NC(=O)[C@@H]2CC(F)(F)CN2C(=O)[C@H](CCc2ccc(C(F)(F)F)c(Cl)c2)NC(=O)CN(C)C(=O)[C@@H]1Cc1ccc(C(F)(F)F)cc1 [PP0425] ([NMeL]I[NEtG][Sar][NPrPhe(4-CF3)][Sar][hPhe(3-Cl-4-CF3)][Pro(4,4-F2)][Ac5c][NMeGly(cPent)][NMeD]-NMe2; lactam N-11) |  |  |  |  | 0.099 nM |  | B (a compound having 3 or more and less than 10 is denoted as B) | C (A compound having a KD ratio of 0.1 or more and less than 3 is denoted as C) |
| CC[C@H](C)[C@@H]1NC(=O)[C@H](CC(C)C)N(C)C(=O)C[C@@H](C(=O)N2CCOCC2)N(C)C(=O)[C@H](CC(C)C)N(C)C(=O)C2(CCCC2)NC(=O)[C@@H]2CCCN2C(=O)[C@H](CCc2ccc(C(F)(F)F)c(Cl)c2)NC(=O)CN(C)C(=O)[C@H](Cc2ccc(C)cc2)N(CC)C(=O)[C@@H]2CCN2C(=O)[C@H](C)N(C)C1=O [PP0016] ([NMeL]I[NMeA][Aze][NEtPhe(4-Me)][Sar][hPhe(3-Cl-4-CF3)]P[Ac5c][NMeL][NMeD]-Morpholide; lactam N-11) | C (A compound having a KD ratio of 0.1 or more and less than 3 is denoted as C) |  | C (A compound having a KD ratio of 0.1 or more and less than 3 is denoted as C) |  | 1.6 nM |  |  |  |
| CCO[C@@H]1C[C@H]2C(=O)NC3(CC(C)(C)C3)C(=O)N(C)[C@@H](C(CC)CC)C(=O)N(C)[C@H](C(=O)N3CCCC3)CC(=O)N(C)[C@@H](COC)C(=O)N[C@@H]([C@@H](C)CC)C(=O)N(C)CC(=O)N(C)[C@H]3C/C=C\CCN(C3=O)[C@@H](Cc3ccc(C(F)(F)F)cc3)C(=O)N(C)CC(=O)N[C@@H](CCc3ccc(Cl)c(Cl)c3)C(=O)N2C1 [PP2174] | AA (a compound having 20 or more is denoted as AA) | 0.4 nM | A (a compound having 10 or more and less than 20 is denoted as A) |  |  |  |  |  |
| CCC[C@H]1C(=O)N[C@@H]([C@@H](C)CC)C(=O)N2CCC[C@H]2C(=O)N(C)[C@H]2C/C=C\CCN(C2=O)[C@@H](Cc2ccc(C(F)(F)F)cc2)C(=O)N(C)CC(=O)N[C@@H](CCc2ccc(C(F)(F)F)c(OC)c2)C(=O)N2C[C@H](OCC)C[C@H]2C(=O)N(C)C2(CCC2)C(=O)N(C)[C@@H](C(CC)CC)C(=O)N(C)[C@H](C(=O)N(C)C)CC(=O)N1C [PP2317] | A (a compound having 10 or more and less than 20 is denoted as A) | 0.4 nM | A (a compound having 10 or more and less than 20 is denoted as A) |  |  |  |  |  |
| CC[C@H](C)[C@@H]1NC(=O)[C@H](CC(C)C)N(C)C(=O)C[C@@H](C(=O)N2CCOCC2)N(C)C(=O)[C@H](C2CCCC2)N(C)C(=O)C2(CCCC2)NC(=O)[C@@H]2CCCN2C(=O)[C@H](CCc2ccc(C(F)(F)F)c(Cl)c2)NC(=O)CN(CC)C(=O)[C@H](Cc2ccc(C)cc2)N(CC)C(=O)[C@@H]2CCN2C(=O)[C@H](C)N(C)C1=O [PP0006] ([NMeL]I[NMeA][Aze][NEtPhe(4-Me)][NEtG][hPhe(3-Cl-4-CF3)]P[Ac5c][NMeGly(cPent)][NMeD]-Morpholide; lactam N-11) | C (A compound having a KD ratio of 0.1 or more and less than 3 is denoted as C) |  | C (A compound having a KD ratio of 0.1 or more and less than 3 is denoted as C) |  | 1.5 nM |  |  |  |
| CCO[C@@H]1C[C@H]2C(=O)NC3(CC(C)(C)C3)C(=O)N(C)[C@@H](C(CC)CC)C(=O)N(C)[C@H](C(=O)N(C)C)CC(=O)N(C)[C@@H](C)C(=O)N[C@@H]([C@@H](C)CC)C(=O)N(C)CC(=O)N(C)[C@H]3C/C=C\CCN(C3=O)[C@@H](Cc3ccc(C)cc3)C(=O)N(C)CC(=O)N[C@@H](CCc3cc(F)c(C(F)(F)F)c(F)c3)C(=O)N2C1 [PP2143] | A (a compound having 10 or more and less than 20 is denoted as A) | 0.31 nM | A (a compound having 10 or more and less than 20 is denoted as A) |  |  |  |  |  |

Source: patent US20240158446A1, “CYCLIC COMPOUND HAVING SELECTIVE INHIBITORY ACTION ON KRAS OVER HRAS AND NRAS” (CHUGAI SEIYAKU KABUSHIKI KAISHA, priority 2021, published 2024)
